Read-outs that look alike come from different tables or passages of the source.
What was measured:
MDA-MB-231 = details: MDA-MB-231, previously described; cited from earlier work
Ch-ind-1 cells = assay: Proliferation of inducible interference line with chemical ChoK inhibitors; format: cell-based, human; details: Ch-ind-1, analogous to parent MDA-MB-231
Text: FIG. 23: Proliferation of MDA-MB-231 (upper row of plaques) and Ch-ind-1 (lower row of plaques) cells in growth permissive conditions (“Control” column? or in the presence of the chemical inhibitors of choline kinase MN58b (middle column) or RSM936 (right column).
FIGS. 23 and 24 show the results obtained in Ch-ind-1 cells, a cell line derived from MDA-MB-231, capable of expressing the interference construction after treatment with the inducing agent doxocycline. […] The genetic inhibition of ChoKα is correlated with a reduction of cell proliferation (determined by pCNA) and an increase of cell death due to apoptosis (determined by PARPdig, degraded PARP protein, which is an indicator of apoptosis). The effect begins to be seen after 10 days, although it is still very initial, and is much more pronounced 20 days after the beginning of the experiment (in which the population has very little ChoKα expression).

HMEC [1] = details: cited from earlier work
[2] = tested on: HEK293T cells transfected with the cka gene; assay: Growth of tumors induced by choline kinase alpha overexpression in Nu/Nu mice; format: in vivo; details: 5 mg/Kg intraperitoneally, 5 consecutive days with 9 days of rest
Protocol: Given that tumors have been generated in vivo by overexpressing choline kinase alpha and that MN58b is specific for this isoform, it has been verified if the growth of the tumors induced by ChoKα is susceptible to inhibition by MN58b. […] When the tumors reached a tumor volume of 0.1 cm^3, treatment with the specific choline kinase alpha inhibitor, MN58b, began, which was administered intraperitoneally in sterile physiological serum for 5 consecutive days with 9 days of rest at a dose of 5 mg/Kg. The control mice received equivalent carrier doses, following the same calendar and the tumors were monitored at least twice a week.

H1299 = assay: Antiproliferative effect of ChoK inhibition, NSCLC line; format: cell-based, human; details: for IC50: H1299 (NSCLC); for sensitivity of the cell compared with the primary cells: number in parentheses
Protocol: (§1) First, the mRNA levels corresponding to said enzyme in cell lines derived from patients with lung cancer were detected again by means of automated real-time quantitative PCR reactions with specific Taqman probes. They were carried out both on cell lines corresponding to the most common type of lung cancer (75-85%), non-microcytic or NSCLC (non small cell lung cancer), represented by lines H460 and H1299, and on lines corresponding to the other type of cancer, microcytic or SCLC (small cell lung cancer), represented by lines H510 and H82, the data being represented in logarithmic scale relating to normal primary human bronchial epithelial cells, BEC. […] An increase with respect to the controls, which is particularly considerable in the case of the SCLC lines, especially H510, is observed in all cases.
(§2) The antiproliferative effect of ChoK inhibition in said cell lines caused by the addition of MN58b was also checked, obtaining the results shown in the following Table, in which the numbers between parentheses indicate the sensitivity of each cell compared with the primary cells. The differences between the primary cells and the four cell lines derived from tumors were significant (p:<0.001) in all the analyzed time periods.

H460 = assay: as above; format: cell-based, human; details: for IC50: H460 (NSCLC); for sensitivity of the cell compared with the primary cells: number in parentheses
Protocol: as §1, §2

BEC = assay: Antiproliferative effect of ChoK inhibition, primary bronchial epithelial cells; format: cell-based, human
Protocol: as §1, §2

H510 = assay: Antiproliferative effect of ChoK inhibition, SCLC line; format: cell-based, human; details: for IC50: H510 (SCLC); for sensitivity of the cell compared with the primary cells: number in parentheses
Protocol: as §1, §2

H82 = assay: as above; format: cell-based, human; details: for IC50: H82 (SCLC); for sensitivity of the cell compared with the primary cells: number in parentheses
Protocol: as §1, §2

HMEC [3] = assay: Antiproliferative effect of ChoK inhibition, primary mammary epithelial cells; format: cell-based, human
Text: as §2

[4] = target: T1, recombinant human choline kinase alpha (Homo sapiens, UniProt P35790); assay: Enzymatic activity of recombinant choline kinase isoforms in E. coli extracts; format: biochemical; details: recombinant isoforms expressed in E. coli
T1 construct: made in house; host or cells: E. coli
Protocol: FIG. 9: Specificity of the inhibitor MN58b on choline kinase alpha. E. coil extracts in which recombinant human choline kinase alpha or choline kinase beta proteins are expressed were analyzed in the absence (0) or in the presence of increasing concentrations of MN58b.
Once the oncogenic activity of the choline kinase alpha isoform, as well as its high incidence of overexpression in human tumors was verified, it was then studied if the anti-tumor effect of the inhibitor MN58b [Hernández-Alcoceba, R., Saniger, L., Campos, J., Núñdez, M. C., Khaless, F., Gallo, M. Á., Espinosa, A., Lacal, J. C. Oncogene, 15, 2289-2301 (1997); Hernández-Alcoceba, R., Fernández, F., Lacal J. C. Cancer Res. 55, 3112-3118 (1999); Ramirez de Molina A., Bañez-Coronel M., Gutiérrez R., Rodriguez González A., Olmeda D., Megias D., Lacal J. C. Cancer Res. 64:6732-6739 (2004)] is specific for this choline kinase alpha isoform or if, in contrast, it could also be attributed to its possible interaction with the choline kinase beta isoform. This verification is necessary because the two choline kinase alpha and choline kinase beta isoforms share up to 75% homology in the substrate binding domains and in the catalytic region. […]

T1 sequence (P35790 whole entry, canonical isoform): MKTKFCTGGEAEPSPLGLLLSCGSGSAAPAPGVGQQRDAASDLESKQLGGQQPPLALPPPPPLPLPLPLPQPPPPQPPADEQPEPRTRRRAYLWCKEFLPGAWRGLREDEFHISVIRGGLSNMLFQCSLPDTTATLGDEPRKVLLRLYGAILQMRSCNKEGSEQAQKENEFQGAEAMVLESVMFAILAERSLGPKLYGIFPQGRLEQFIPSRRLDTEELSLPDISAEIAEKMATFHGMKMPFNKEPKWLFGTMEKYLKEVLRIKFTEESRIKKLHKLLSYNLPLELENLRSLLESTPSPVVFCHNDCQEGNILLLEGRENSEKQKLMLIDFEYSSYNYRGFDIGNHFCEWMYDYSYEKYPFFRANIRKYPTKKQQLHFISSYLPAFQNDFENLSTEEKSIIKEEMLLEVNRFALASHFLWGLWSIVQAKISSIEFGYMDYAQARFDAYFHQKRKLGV

Substance: MN58b
- anti-tumor effect of pharmacological inhibition of choline kinase (MDA-MB-231): strong anti-tumor effect due to apoptosis induction
- sensitivity of proliferation to chemical inhibition of ChoKα (Ch-ind-1 cells): sensitive to the chemical inhibition
- cell fate of primary cells after treatment (HMEC [1]; HMEC treated with the inhibitor): cycle-arrested
- effect on the viability of normal primary cells (HMEC [1]; HMEC, chemical inhibitor): no effect on the viability
- tumor growth reduction [2]: 80%
- IC50 (H1299; 48 h, read-out: 48 h IC50): 10.3 ± 2.5 µM
- IC50 (H1299; 72 h, read-out: 72 h IC50): 2.7 ± 0.7 µM
- IC50 (H1299; 114 h, read-out: 114 h IC50): 0.9 ± 0.1 µM
- sensitivity of the cell compared with the primary cells (H1299; H1299, 48 h): 4
- sensitivity of the cell compared with the primary cells (H1299; H1299, 72 h): 8
- sensitivity of the cell compared with the primary cells (H1299; H1299, 114 h): 4
- IC50 (H460; 48 h, read-out: 48 h IC50): 7.03 ± 2.03 µM
- IC50 (H460; 72 h, read-out: 72 h IC50): 2.6 ± 0.8 µM
- IC50 (H460; 114 h, read-out: 114 h IC50): 1.1 ± 0.1 µM
- sensitivity of the cell compared with the primary cells (H460; H460, 48 h): 6
- sensitivity of the cell compared with the primary cells (H460; H460, 72 h): 8
- sensitivity of the cell compared with the primary cells (H460; H460, 114 h): 3
- IC50 (BEC; 48 h, read-out: 48 h IC50): 40.5 ± 6.2 µM
- IC50 (BEC; 72 h, read-out: 72 h IC50): 18.3 ± 4.8 µM
- IC50 (BEC; 114 h, read-out: 114 h IC50): 4.2 ± 0.8 µM
- IC50 (H510; 48 h, read-out: 48 h IC50): 1.1 ± 0.1 µM
- IC50 (H510; 72 h, read-out: 72 h IC50): 0.4 ± 0.05 µM
- IC50 (H510; 114 h, read-out: 114 h IC50): 0.1 ± 0.03 µM
- sensitivity of the cell compared with the primary cells (H510; H510, 48 h): 41
- sensitivity of the cell compared with the primary cells (H510; H510, 72 h): 53
- sensitivity of the cell compared with the primary cells (H510; H510, 114 h): 27
- IC50 (H82; 48 h, read-out: 48 h IC50): 1.9 ± 0.2 µM
- IC50 (H82; 72 h, read-out: 72 h IC50): 0.8 ± 0.04 µM
- IC50 (H82; 114 h, read-out: 114 h IC50): 0.27 ± 0.01 µM
- sensitivity of the cell compared with the primary cells (H82; H82, 48 h): 24
- sensitivity of the cell compared with the primary cells (H82; H82, 72 h): 27
- sensitivity of the cell compared with the primary cells (H82; H82, 114 h): 12
- IC50 (HMEC [3]; 48 h, read-out: 48 h IC50): 44.7 ± 4.95 µM
- IC50 (HMEC [3]; 72 h, read-out: 72 h IC50): 20.9 ± 2.7 µM
- IC50 (HMEC [3]; 114 h, read-out: 114 h IC50): 3.4 ± 0.13 µM
- times more active against choline kinase alpha than against choline kinase beta [4]: 20 times

Source: US20140023657A1, “IN VITRO METHOD FOR IDENTIFYING COMPOUNDS FOR CANCER THERAPY” (CONSEJO SUPERIOR DE INVESTIGACIONES CIENTIFICAS, priority 2005, published 2014)
